Data on eleven compounds can be found in ChEMBL document CHEMBL4184210, “Optimization of novel monobactams with activity against carbapenem-resistant Enterobacteriaceae - Identification of LYS228” (Bioorg Med Chem Lett, 2018).

Data set [1] deals with Escherichia coli. Nature of the data set: Antimicrobial activity against Escherichia coli expressing beta-lactamase KPC-2 by CLSI broth microdilution method. The class given is functional. (Broth dilution looks for growth in wells or tubes with falling amounts of substance.)
A short description of data set [2]: Chemical stability in pH 7.4 potassium phosphate buffer assessed as half life for compound hydrolysis at 37 degC by UPLC and mass spectrometry. The class given is physicochemical.
Data set [3] has as its system Escherichia coli. Nature of the data set: microbe, parasite or virus in culture.
Description: Antimicrobial activity against wild type Escherichia coli by CLSI broth microdilution method
Data set [4] concerns Escherichia coli. Nature of the data set: microbe, parasite or virus in culture. This is another data set of the same source.
Description: Antimicrobial activity against Escherichia coli expressing beta-lactamase CTXM-15 by CLSI broth microdilution method
The subject of data set [5] is Escherichia coli. Nature of the data set: microbe, parasite or virus in culture. This is another data set of the same source.
Description: Antimicrobial activity against Escherichia coli expressing beta-lactamase SHV-12 by CLSI broth microdilution method
Data set [6] concerns Escherichia coli. Nature of the data set: microbe, parasite or virus in culture. The source holds these as a separate data set.
Description: Antimicrobial activity against Escherichia coli expressing beta-lactamase TEM-10 by CLSI broth microdilution method
The test system of data set [7] is Escherichia coli. Nature of the data set: microbe, parasite or virus in culture. This is another data set of the same source.
Description: Antimicrobial activity against Escherichia coli expressing beta-lactamase AmpC by CLSI broth microdilution method
Data set [8] concerns Escherichia coli. Nature of the data set: microbe, parasite or virus in culture. This is another data set of the same source.
Description: Antimicrobial activity against Escherichia coli expressing beta-lactamase CMY-2 by CLSI broth microdilution method

Molecules are shown by their SMILES. In brackets after ≈: the same amount, converted by molar mass.

Usually half-life stands for the time needed for the level to fall by half in the phase considered. Take `CC(C)(O/N=C(\C(=O)N[C@@H]1C(=O)N(S(=O)(=O)O)[C@@H]1Cn1cc(NC(=O)C[N+](C)(C)C)nn1)c1csc(N)n1)C(=O)O`: the MIC against Escherichia coli [1] was determined as 2 µg/mL; against Escherichia coli [3], 1 µg/mL; in the data set on Escherichia coli [4], 2 µg/mL; with Escherichia coli [5], 8 µg/mL; against Escherichia coli [6], 8 µg/mL; in the data set on Escherichia coli [7], 2 µg/mL. Further, in the data set with Escherichia coli [8], the MIC amounted to 8 µg/mL. Also, in data set [2], the half-life is above 2220 min.
For `CC(C)(O/N=C(\C(=O)N[C@@H]1C(=O)N(S(=O)(=O)O)[C@@H]1Cn1cc(CCN)nn1)c1csc(N)n1)C(=O)O` (stereo in doubt), the MIC in the data set with Escherichia coli [1] was 2 µg/mL (≈ 3.67 µM); in the data set with Escherichia coli [3] it was 1 µg/mL (≈ 1.83 µM); in the data set on Escherichia coli [4], 1 µg/mL (≈ 1.83 µM); in the data set with Escherichia coli [5], 4 µg/mL (≈ 7.33 µM); against Escherichia coli [6], 2 µg/mL (≈ 3.67 µM); with Escherichia coli [7] it was 2 µg/mL (≈ 3.67 µM). Further, the MIC in the data set on Escherichia coli [8] came out at 4 µg/mL (≈ 7.33 µM). In data set [2], the half-life was above 2220 min.
Turning to `CC(C)(O/N=C(\C(=O)N[C@@H]1C(=O)N(S(=O)(=O)O)[C@@H]1Cn1cc(C(=O)O)nn1)c1csc(N)n1)C(=O)O` (stereo in doubt), the MIC against Escherichia coli [1] came to 16 µg/mL (≈ 29.3 µM); against Escherichia coli [3], 32 µg/mL (≈ 58.6 µM); against Escherichia coli [4], 16 µg/mL (≈ 29.3 µM); against Escherichia coli [5], 16 µg/mL (≈ 29.3 µM); against Escherichia coli [6] it was 32 µg/mL (≈ 58.6 µM); in the data set on Escherichia coli [7], 32 µg/mL (≈ 58.6 µM). In the data set with Escherichia coli [8], this compound returned an MIC of 64 µg/mL (≈ 117 µM). Also, the half-life in data set [2] was above 2220 min.
Take `CC(C)(O/N=C(\C(=O)N[C@@H]1C(=O)N(S(=O)(=O)O)[C@@H]1CN1C[C@H](CNC(=N)N)OC1=O)c1csc(N)n1)C(=O)O` (stereo in doubt): the MIC in the data set with Escherichia coli [1] is 16 µg/mL (≈ 27 µM); against Escherichia coli [3], 8 µg/mL (≈ 13.5 µM); against Escherichia coli [4], 8 µg/mL (≈ 13.5 µM); in the data set with Escherichia coli [5], 16 µg/mL (≈ 27 µM); against Escherichia coli [6], above 64 µg/mL; against Escherichia coli [7], 16 µg/mL (≈ 27 µM). Moreover, in the data set on Escherichia coli [8], the MIC worked out at 32 µg/mL (≈ 54.1 µM). The half-life in data set [2] was above 2220 min.
Regarding `Cc1ncnn1C[C@@H]1[C@H](NC(=O)/C(=N\OC(C)(C)C(=O)O)c2csc(N)n2)C(=O)N1S(=O)(=O)O` (stereo in doubt), the MIC in the data set with Escherichia coli [1] worked out at 2 µg/mL (≈ 3.87 µM); against Escherichia coli [3], 4 µg/mL (≈ 7.74 µM); with Escherichia coli [4], 4 µg/mL (≈ 7.74 µM); against Escherichia coli [5], 4 µg/mL (≈ 7.74 µM); against Escherichia coli [6], 8 µg/mL (≈ 15.5 µM); against Escherichia coli [7], 8 µg/mL (≈ 15.5 µM). Also, the MIC in the data set on Escherichia coli [8] came out at 8 µg/mL (≈ 15.5 µM). In addition, the half-life in data set [2] is above 2220 min.
On to `CC(C)(O/N=C(\C(=O)N[C@@H]1C(=O)N(S(=O)(=O)O)[C@@H]1CN1C[C@@H](CO)OC1=O)c1csc(N)n1)C(=O)O` (stereo in doubt), for which the MIC in the data set on Escherichia coli [1] was 32 µg/mL (≈ 58.1 µM); against Escherichia coli [3] it was 16 µg/mL (≈ 29.1 µM); in the data set on Escherichia coli [4] it was 16 µg/mL (≈ 29.1 µM); against Escherichia coli [5], 32 µg/mL (≈ 58.1 µM); with Escherichia coli [6] it was 64 µg/mL (≈ 116 µM); in the data set on Escherichia coli [7], 32 µg/mL (≈ 58.1 µM). The compound also showed an MIC against Escherichia coli [8] of 16 µg/mL (≈ 29.1 µM). For the same compound, in data set [2], the half-life is above 2220 min.
For the compound `CC(C)(O/N=C(\C(=O)N[C@@H]1C(=O)N(S(=O)(=O)O)[C@@H]1Cn1cc(CN)nn1)c1csc(N)n1)C(=O)O` (stereo in doubt), the MIC against Escherichia coli [1] stood at 2 µg/mL (≈ 3.76 µM); in the data set with Escherichia coli [3], 1 µg/mL (≈ 1.88 µM); with Escherichia coli [4], 1 µg/mL (≈ 1.88 µM); in the data set with Escherichia coli [5], 4 µg/mL (≈ 7.53 µM); with Escherichia coli [6] it was 2 µg/mL (≈ 3.76 µM); with Escherichia coli [7], 1 µg/mL (≈ 1.88 µM). This compound also returned an MIC in the data set with Escherichia coli [8] of 1 µg/mL (≈ 1.88 µM). Further, the half-life in data set [2] was above 2220 min.
For the compound `Nc1nc(/C(=N/OC2(C(=O)O)CCC2)C(=O)N[C@@H]2C(=O)N(S(=O)(=O)O)[C@@H]2Cn2cncn2)cs1` (stereo in doubt), the MIC was found to be 1 µg/mL (≈ 1.94 µM) in the data set on Escherichia coli [1]; 1 µg/mL (≈ 1.94 µM) in the data set with Escherichia coli [3]; 0.5 µg/mL (≈ 0.972 µM) with Escherichia coli [4]; 1 µg/mL (≈ 1.94 µM) with Escherichia coli [5]; 4 µg/mL (≈ 7.77 µM) in the data set on Escherichia coli [6]; 2 µg/mL (≈ 3.89 µM) in the data set on Escherichia coli [7]. In the data set with Escherichia coli [8], this compound returned an MIC of 4 µg/mL (≈ 7.77 µM).
Consider `C[C@H](O/N=C(\C(=O)N[C@@H]1C(=O)N(S(=O)(=O)O)[C@@H]1Cn1cncn1)c1csc(N)n1)C(=O)O` (stereo in doubt), for which the MIC in the data set with Escherichia coli [1] amounted to 1 µg/mL (≈ 2.05 µM); with Escherichia coli [3] it was 0.125 µg/mL (≈ 0.256 µM); with Escherichia coli [4], 0.125 µg/mL (≈ 0.256 µM); against Escherichia coli [5] it was 4 µg/mL (≈ 8.19 µM); in the data set with Escherichia coli [6] it was 4 µg/mL (≈ 8.19 µM); in the data set with Escherichia coli [7] it was 2 µg/mL (≈ 4.09 µM). The compound further came in with an MIC against Escherichia coli [8] of 8 µg/mL (≈ 16.4 µM).
For the compound `CC(C)(O/N=C(\C(=O)N[C@@H]1C(=O)N(S(=O)(=O)O)[C@@H]1Cn1ncnc1CNC(=N)N)c1csc(N)n1)C(=O)O` (stereo in doubt), the MIC with Escherichia coli [1] stood at 32 µg/mL (≈ 55.8 µM); against Escherichia coli [3], 16 µg/mL (≈ 27.9 µM); in the data set with Escherichia coli [4] it was 16 µg/mL (≈ 27.9 µM); against Escherichia coli [5] it was 16 µg/mL (≈ 27.9 µM); in the data set with Escherichia coli [6] it was 16 µg/mL (≈ 27.9 µM); against Escherichia coli [7] it was 32 µg/mL (≈ 55.8 µM). This compound also had an MIC against Escherichia coli [8] of 32 µg/mL (≈ 55.8 µM). In addition, in data set [2], the half-life was above 2220 min.
Consider `CC(C)(O/N=C(\C(=O)N[C@@H]1C(=O)N(S(=O)(=O)O)[C@@H]1CN1C[C@@H](CN)OC1=O)c1csc(N)n1)C(=O)O` (stereo in doubt), for which the MIC in the data set with Escherichia coli [1] amounted to 1 µg/mL (≈ 1.82 µM); against Escherichia coli [3], 0.5 µg/mL (≈ 0.91 µM); in the data set with Escherichia coli [4] it was 0.5 µg/mL (≈ 0.91 µM); against Escherichia coli [5], 0.5 µg/mL (≈ 0.91 µM); with Escherichia coli [6], 2 µg/mL (≈ 3.64 µM); against Escherichia coli [7], 1 µg/mL (≈ 1.82 µM). In the data set on Escherichia coli [8], this compound displayed an MIC of 1 µg/mL (≈ 1.82 µM). For the same compound, the half-life in data set [2] is above 2220 min.
